This note sets out measurements from US10562869B2, “Oxadiazole compounds” (REMYND NV, priority 2014, dated 2020).

The test system of this experiment is M17_3TAU(P301L) cells. Briefly: Retinoic acid-induced cytotoxicity (LDH) in TAU-P301L expressing M17_3TAU(P301L) neuroblastoma cells. The format is cell-based. Particulars: Homo sapiens, Neuroblastoma cell, 168 h; toxicity inhibition (LDH) in M17_3TAU(P301L) cells challenged with retinoic acid, 7 days. The text has this:
A TAU expression plasmid was constructed by sub-cloning the cDNA encoding for human TAU-P301L protein, wherein proline at position 301 was substituted by a leucine residue, into mammalian expression vector pcDNA3.1 resulting in the plasmid pcDNA3.1-TAUP301L. Plasmid pcDNA3.1-TAU P301L was transfected into human neuroblastoma cells (BE-M17; ATCC No. CRL-2267™) using lipofectamine reagent and subsequently, independent clonal cell lines with the plasmids stably integrated into the genome were selected by antibiotic resistance selection (Geneticin (G418)), resulting in cell line M17_3TAUP301L. Expression of the TAUP301L gene in the M17_3TAUP301L cells was confirmed by Western blot analysis.
M17_3TAU(P301L) cells were treated chronically with retinoic acid (RA) in low serum conditions to induce Alzheimer's disease-like intracellular signaling deregulation leading to increased TAU levels and subsequent cell death. Cytotoxicity of cells was measured by quantification of lactate dehydrogenase (LDH) levels. In dead cells LDH leaked out of the cells into the medium due to a loss of plasma-membrane integrity.
3 days preceding the experiment, a pre-culture of M17_3TAU(P301L) cells was prepared, starting from a stock culture, at a density of 50.000-100.000 cells/cm^2 in culture medium (Optimem Reduced Serum with phenol red (Invitrogen, Cat. 31985-047)) supplemented with 10% fetal calf serum (FCS), 1 mM sodium pyruvate, 1×non-essential amino acids (NEAA), 500 μg/ml G418 and 0.5×(ABAM). At the day of the experiment these precultures were diluted to ˜0.1·10^6 cells/ml in detection medium (Optimem Reduced Serum without phenol red (Gibco, Cat.11058-021) supplemented with 1% fetal calf serum (FCS), 1 mM sodium pyruvate, 1×non-essential amino acids (NEAA), 500 μg/ml G418 and 0.5×ABAM) and 60 μL of this suspension was dispensed per well into a 96-well microtiter plate. After 3 hours of incubation at 37° C./5% CO2 an equal volume of detection medium (without FCS) containing 3.75 μM RA was added and subsequently incubated for 7 days at 37° C./5% CO2. Then LDH activity was determined using the Promega Cytotox 96 Non-Radioactive cytotoxicity assay (Cat. G1780), according to the manufacturer's instructions. Cytotoxicity was defined as the ratio of LDH relative the total LDH in the cells and supernatant.
The assay described above using the M17_3TAU(P301L) cell line allowed to screen compounds for their ability to decrease cytotoxicity in RA-challenged cells. Compounds of the invention were tested for their ability to decrease toxicity at different concentrations, ranging from low non-effective concentrations to high potent concentrations. Afterwards, the dose-dependent inhibition curve was used to calculate their EC50. A compound was considered to be active in this test when it inhibited toxicity by more than 20% relative to untreated M17_3TAU(P301L) cells at a concentration of 10 μM or lower.

SMILES strings stand for the structures.

As usually defined, the EC50 is the concentration at which the effect is half-maximal. Take `Cc1ccc(CN2CCN(c3nc(Cc4ccc(Cl)cc4)no3)CC2)cc1` [Cmpd063, 1-[3-(4-Chloro-benzyl)-[1,2,4]oxadiazol-5-yl]-4-(4-methyl-benzyl)-piperazine]: the EC50 is 174 nM.
Under `COc1cc(CCN2CCN(c3nc(-c4cccc(F)c4)no3)CC2)ccn1` [Cmpd032, 3-(3-Fluorophenyl)-5-(4-(2-(2-methoxypyridin-4-yl)ethyl)piperazin-1-yl)-1,2,4-oxadiazole] stands 8 nM; under `Cc1ccc(CN2CCN(c3nc(C4C[C@@H]5CC[C@H]4C5)no3)CC2)cc1` (stereo partly drawn) [Cmpd185, 3-((1S,4R)-bicyclo[2.2.1]heptan-2-yl)-5-(4-(4-methylbenzyl)piperazin-1-yl)-1,2,4-oxadiazole], 71 nM.
Under `COc1ccc(CCN2CCN(c3nc(Cc4ccc(Cl)cc4)no3)CC2)cn1` [Cmpd060, 1-[3-(4-Chloro-benzyl)-[1,2,4]oxadiazol-5-yl]-4-[2-(6-methoxy-pyridin-3-yl)-ethyl]-piperazine] stands 74 nM.
As for `C1CN(CCN2CCN(c3nc(C4C[C@@H]5CC[C@H]4C5)no3)CC2)CCO1` (stereo partly drawn) [Cmpd188, 4-(2-(4-(3-((1S,4R)-bicyclo[2.2.1]heptan-2-yl)-1,2,4-oxadiazol-5-yl)piperazin-1-yl)ethyl)morpholine], the figure is 4 nM.
Regarding `Cc1ccccc1CN1CCN(c2nc(Cc3cccc(Cl)c3)no2)CC1` [Cmpd075, 1-[3-(3-Chloro-benzyl)-[1,2,4]oxadiazol-5-yl]-4-(2-methyl-benzyl)-piperazine], the EC50 came out at 238 nM. This EC50 lies about 60-fold higher than the previous one.
As to `CC(C)N1CCN(c2nc(Cc3ccc(Cl)cc3)no2)CC1` [Cmpd071, 3-(4-Chlorobenzyl)-5-(4-isopropylpiperazin-1-yl)-1,2,4-oxadiazole], the midpoint of the response, the EC50, lay at 133 nM.
Under `Clc1ccc(Cc2noc(N3CCN(CC4CCOCC4)CC3)n2)cc1` [Cmpd069, 3-(4-Chlorobenzyl)-5-(4-((tetrahydro-2H-pyran-4-yl)methyl)piperazin-1-yl)-1,2,4-oxadiazole] stands 161 nM; under `FC(F)(F)CCc1noc(N2CCN(CCc3ccc(Cl)cc3)CC2)n1` [Cmpd174, 5-(4-(4-Chlorophenethyl)piperazin-1-yl)-3-(3,3,3-trifluoropropyl)-1,2,4-oxadiazole], 24 nM.
As for `CC(C)CCN1CCN(c2nc(C3C[C@@H]4CC[C@H]3C4)no2)CC1` (stereo partly drawn) [Cmpd189, 3-((1S,4R)-bicyclo[2.2.1]heptan-2-yl)-5-(4-isopentylpiperazin-1-yl)-1,2,4-oxadiazole], the figure is 3 nM; as for `Cc1ccc(-c2noc(N3CCN(Cc4ccccc4C)CC3)n2)cc1` [Cmpd010, 5-(4-(2-Methylbenzyl)piperazin-1-yl)-3-(p-tolyl)-1,2,4-oxadiazole], 306 nM.
Under `N#CCCCN1CCN(c2nc(CCC(F)(F)F)no2)CC1` [Cmpd181, 4-(4-(3-(3,3,3-Trifluoropropyl)-1,2,4-oxadiazol-5-yl)piperazin-1-yl)butanenitrile] stands 584 nM.
For `c1ccc(Cc2noc(N3CCN(Cc4ccc5c(c4)OCO5)CC3)n2)cc1` [Cmpd040, 1-Benzo[1,3]dioxol-5-ylmethyl-4-(3-benzyl-[1,2,4]oxadiazol-5-yl)-piperazine], the EC50 is 64 nM.
Take `Fc1ccc(Cc2noc(N3CCN(Cc4ccc(Cl)cc4)CC3)n2)cc1F` [Cmpd097, 1-(4-Chloro-benzyl)-4-[3-(3,4-difluoro-benzyl)-[1,2,4]oxadiazol-5-yl]-piperazine]: the response was half-maximal at 486 nM (EC50). This EC50 is about 7.6-fold higher than that of the compound before.
In the case of `Clc1ccc(CCN2CCN(c3nc(-c4ccc(Cl)cc4)no3)CC2)cc1` [Cmpd019, 5-(4-(4-Chlorophenethyl)piperazin-1-yl)-3-(4-chlorophenyl)-1,2,4-oxadiazole], the EC50 amounted to 112 nM.
As to `Cc1ccccc1CN1CCN(c2nc(CCC(F)(F)F)no2)CC1` [Cmpd176, 5-(4-(2-Methylbenzyl)piperazin-1-yl)-3-(3,3,3-trifluoropropyl)-1,2,4-oxadiazole], the midpoint of the response, the EC50, lay at 169 nM.
